Experimental data reported in PMC5727346 (International Journal for Parasitology: Drugs and Drug …, 2017).

Target: triosephosphate isomerase from G. lamblia (GlTIM; dGlTIM) (Giardia duodenalis, UniProt P36186, C202A)
Experiment: GDH-coupled TIM activity assay after […] h incubation at […] °C
Format: biochemical

For CCN(CC)C(=S)SSC(=S)N(CC)CC [disulfiram, 1,1′,1″,1‴-[disulfanediylbis(carbonothioylnitrilo)]tetraethane], the IC50 was 6.6 µM.
